Literature values in patent US9072786B2, “Method of manufacturing an implantable device” (Endo Pharmaceuticals Solutions Inc., priority 2008, dated 2015).

How the values were obtained:
[1] = hydrophilic-lipophilic balance of the surfactant
[2] = concentration of surfactant at which micelles form

Molecule | HLB [1] | CMC [2]
CCCCCCCC/C=C\CCCCCCCC(=O)OCCOCC(OCCO)C1OCC(OCCO)C1OCCO (stereo not shown) [Tween 80] | 15 | 0.012 mM
Sucrose monolaurate | ~8 | 0.2 mM
